Experimental data: US4130559A, “Method for the preparation of 6-aminopenicillinic acid derivatives” (priority 1977, dated 1978)
In brackets after ≈: the same amount, converted by molar mass. Like-named read-outs stand apart in the source and are kept apart here.

Columns and labels:
[1] = test system: Strept. pyrogenes; test: Minimal bacteriostatic concentration; type: cell-based; conditions: sodium salts
Protocol: (§1) All compounds of this group were prepared in the form of sodium salts. Bactericidal activity, degree of hydrolysis with staphylococc penicillinase and acid resistance of the penicillins were determined.

[2] = test system: Staph. aureus 209p; test: Minimal bacteriostatic concentration; type: cell-based; conditions: Staphylococcus aureus, sodium salts
Protocol: as §1

[3] = test system: Staph. aureus 209p (adapted to benzylpenicillin); test: Minimal bacteriostatic concentration; type: cell-based; conditions: Staphylococcus aureus, read-out: Minimal Bacteriostatic Concentration
Protocol: as §1

[4] = test system: E.typhi; test: Minimal bacteriostatic concentration; type: cell-based; conditions: read-out: Minimal Bacteriostatic Concentration
Protocol: as §1

[5] = test system: Staph. albus; test: Minimal bacteriostatic concentration; type: cell-based; conditions: sodium salts
Protocol: as §1

[6] = test system: E.coli O-55; test: Minimal bacteriostatic concentration; type: cell-based; conditions: Escherichia coli
Protocol: as §1

[7] = test system: Ps.aeruginosa; test: Minimal bacteriostatic concentration; type: cell-based; conditions: Pseudomonas aeruginosa, sodium salts
Protocol: as §1

[8] = test system: B.Subtitis ATCC6633; test: Minimal bacteriostatic concentration; type: cell-based; conditions: sodium salts
Protocol: as §1

[9] = test system: Vibrion Metschnicoff; test: Minimal bacteriostatic concentration; type: cell-based; conditions: read-out: Minimal Bacteriostatic Concentration
Protocol: as §1

[10] = test system: Prot.vulgaris; test: Minimal bacteriostatic concentration; type: cell-based; conditions: Proteus vulgaris, sodium salts
Protocol: as §1

[11] = test system: Myco smegmatis; test: Minimal bacteriostatic concentration; type: cell-based; conditions: sodium salts
Protocol: as §1

[12] = test system: Sh.dysenteriae Flexneri; test: Minimal bacteriostatic concentration; type: cell-based; conditions: Shigella dysenteriae, read-out: Minimal Bacteriostatic Concentration
Protocol: as §1

[13] = in vivo; conditions: mouse, iv
[14] = Acid resistance (half-life period); type: physicochemical
Protocol: as §1

[15] = target: T1, staphylococc penicillinase (Staphylococcus aureus, UniProt P00807); test: Hydrolysis/inactivation by staphylococc penicillinase; type: biochemical; conditions: for Quantity of inactivated units of compounds under the action of 1 unit of staphylococc penicillinase: Table 5
T1 sequence (P00807 25-281): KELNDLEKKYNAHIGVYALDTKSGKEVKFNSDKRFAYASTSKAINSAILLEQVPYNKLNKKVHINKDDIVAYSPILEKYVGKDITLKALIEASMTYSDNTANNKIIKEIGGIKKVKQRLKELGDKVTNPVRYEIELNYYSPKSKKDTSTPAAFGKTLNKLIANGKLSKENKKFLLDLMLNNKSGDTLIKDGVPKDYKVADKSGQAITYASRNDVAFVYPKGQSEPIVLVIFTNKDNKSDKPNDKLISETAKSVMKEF
Protocol: as §1
The substitution of propoxy radical for iso-radical in this position is not accompanied by areduction of penicillin stability against penicillinase which is not observed in the orto- and para-positions. During the subsequent hours of inactivation the rate of hydrolysis of penicillins slightly increases. However, even when observed in dynamics, their stability against penicillianase still persists during 4-hour-inactivation.

[16] = target: T1, staphylococc penicillinase; conditions: cited from earlier work
[17] = O55, E.coli O-55, sodium salts, read-out: Minimal Bacteriostatic Concentration
[18] = acid ph 1.3, pH 1.3, under conditions of our experiments, read-out: half-life period
[19] = Vibrion Metschnicoff, sodium salts
[20] = acid ph 1.3, Temperature 37° C, pH 1.3, Table 1, cyclopentyl series, read-out: τ1/2 half-life period (acid resistance)
[21] = O55, read-out: Minimal Bacteriostatic Concentration

| Compound | MIC [1] | MIC [2] | MIC [3] | MIC [4] | MIC [5] | MIC [6, 17] | MIC [7] | MIC [8] | MIC [9] | MIC [10] | MIC [11] | MIC [12] | MTD [13] | half-life [14, 18] | Quantity of inactivated units of compounds under the action of 1 unit of staphylococc penicillinase [15] | stability against penicillinase ([15]; during the first hour after inactivation, 60 min) | MIC [9, 19] | half-life [14, 20] | penicillinase resistance (background statement) [16] | MIC [6, 21] |
| --- | --- | --- | --- | --- | --- | --- | --- | --- | --- | --- | --- | --- | --- | --- | --- | --- | --- | --- | --- | --- |
| CC1(C)SC2C(NC(=O)C3(c4ccccc4)CCCC3)C(=O)N2C1C(=O)O (centres unmarked) [Compound I (Table 1), 1-Phenylcyclopentyl-1-Penicillin] | 0.012 µg/mL | 0.048 µg/mL | > 500 µg/mL | 62.5 µg/mL (≈ 161 µM) | 0.048 µg/mL | 500 µg/mL | > 500 µg/mL | 0.09 µg/mL | 0.24 µg/mL (≈ 0.618 µM) | 250 µg/mL | > 500 µg/mL | 125 µg/mL (≈ 322 µM) | 500 mg/kg | 26 min | 0 units | 100% | – | – | – | – |
| CCOc1ccccc1C1(C(=O)NC2C(=O)N3C2SC(C)(C)C3C(=O)O)CCCC1 (centres unmarked) [Compound III (Table 1)] | 0.78 µg/mL | 0.78 µg/mL | > 500 µg/mL | 62.5 µg/mL (≈ 144 µM) | 0.39 µg/mL | 500 µg/mL | > 500 µg/mL | 7.8 µg/mL | – | 500 µg/mL | > 500 µg/mL | 125 µg/mL (≈ 289 µM) | 1000 mg/kg | – | 20.5 units | – | 0.9 µg/mL | 102 min | – | – |
| CCCOc1ccccc1C1(C(=O)NC2C(=O)N3C2SC(C)(C)C3C(=O)O)CCCC1 (centres unmarked) [Compound IV (Table 1)] | 0.39 µg/mL | 0.19 µg/mL | > 500 µg/mL | 62.5 µg/mL (≈ 140 µM) | 0.39 µg/mL | > 125 µg/mL | > 500 µg/mL | 15.6 µg/mL | – | 500 µg/mL | > 500 µg/mL | 125 µg/mL (≈ 280 µM) | 1500 mg/kg | – | 20.45 units | – | 0.9 µg/mL | 14.9 min | – | – |
| COc1ccccc1C1(C(=O)NC2C(=O)N3C2SC(C)(C)C3C(=O)O)CCCC1 (centres unmarked) [Compound II (Table 1)] | 0.78 µg/mL | 0.9 µg/mL | > 500 µg/mL | 62.5 µg/mL (≈ 149 µM) | 0.9 µg/mL | 250 µg/mL | > 500 µg/mL | 3.9 µg/mL | – | 500 µg/mL | > 500 µg/mL | 62.5 µg/mL (≈ 149 µM) | 2000 mg/kg | – | 28.8 units | – | – | 187 min | – | – |
| COc1cccc(C2(C(=O)NC3C(=O)N4C3SC(C)(C)C4C(=O)O)CCCC2)c1 (centres unmarked) [Compound VII (Table 1)] | 0.39 µg/mL | 0.39 µg/mL | > 500 µg/mL | – | 0.39 µg/mL | 250 µg/mL | > 500 µg/mL | 1.56 µg/mL | – | 125 µg/mL | > 500 µg/mL | 125 µg/mL (≈ 299 µM) | 2500 mg/kg | – | 14.2 units | – | – | 288 min | – | – |
| COc1cccc(OC)c1C(=O)N[C@@H]1C(=O)N2[C@@H]1SC(C)(C)[C@@H]2C(=O)O [methycillin] | – | – | – | – | – | – | – | – | – | – | – | – | – | – | – | – | – | – | penicillinase resistant | – |
| CCCOc1ccc(C2(C(=O)NC3C(=O)N4C3SC(C)(C)C4C(=O)O)CCCC2)cc1 (centres unmarked) [Compound XIV (Table 1)] | 0.048 µg/mL | 0.39 µg/mL | – | 7.8 µg/mL (≈ 17.5 µM) | 0.09 µg/mL | – | > 500 µg/mL | 0.24 µg/mL | – | 62.5 µg/mL | > 500 µg/mL | 31.2 µg/mL (≈ 69.9 µM) | 1500 mg/kg | – | 10.4 units | – | 0.9 µg/mL | 88.9 min | – | 125 µg/mL (≈ 280 µM) |
| CC(C)Oc1cccc(C2(C(=O)NC3C(=O)N4C3SC(C)(C)C4C(=O)O)CCCC2)c1 (centres unmarked) [Compound X (Table 1)] | 0.19 µg/mL | 0.39 µg/mL | > 500 µg/mL | 15.6 µg/mL (≈ 34.9 µM) | 0.19 µg/mL | – | > 500 µg/mL | 7.8 µg/mL | – | 250 µg/mL | > 500 µg/mL | 62.5 µg/mL (≈ 140 µM) | 1500 mg/kg | – | 27.5 units | – | 3.9 µg/mL | 25.9 min | – | 250 µg/mL (≈ 560 µM) |
| CCCOc1cccc(C2(C(=O)NC3C(=O)N4C3SC(C)(C)C4C(=O)O)CCCC2)c1 (centres unmarked) [Compound IX (Table 1), 1-(m-propoxyphenyl)Cyclopentyl-1-Penicillin] | 0.39 µg/mL | 0.39 µg/mL | > 500 µg/mL | 15.6 µg/mL (≈ 34.9 µM) | 0.19 µg/mL | – | > 500 µg/mL | 0.9 µg/mL | – | 125 µg/mL | > 500 µg/mL | 62.5 µg/mL (≈ 140 µM) | 1500 mg/kg | – | 10.6 units | – | 3.9 µg/mL | 222 min | – | 250 µg/mL (≈ 560 µM) |
| CCOc1cccc(C2(C(=O)NC3C(=O)N4C3SC(C)(C)C4C(=O)O)CCCC2)c1 (centres unmarked) [Compound VIII (Table 1)] | 0.39 µg/mL | 0.39 µg/mL | > 500 µg/mL | 31.2 µg/mL (≈ 72.1 µM) | 0.19 µg/mL | – | > 500 µg/mL | 0.9 µg/mL | – | 250 µg/mL | > 500 µg/mL | 125 µg/mL (≈ 289 µM) | 1500 mg/kg | – | 10.0 units | – | 3.9 µg/mL | 189 min | – | 250 µg/mL (≈ 578 µM) |
| CC1(C)S[C@@H]2[C@H](NC(=O)Cc3ccccc3)C(=O)N2[C@H]1C(=O)O [Benzyl Penicillin, benzylpenicillin, reference compound] | 0.003 µg/mL | 0.012 µg/mL | > 500 µg/mL | 0.39 µg/mL (≈ 1.17 µM) | 0.006 µg/mL | – | > 500 µg/mL | 0.048 µg/mL | – | 1.56 µg/mL | > 500 µg/mL | 3.12 µg/mL (≈ 9.33 µM) | – | 2.1 min | – | – | 0.78 µg/mL | – | – | 31.2 µg/mL (≈ 93.3 µM) |
| CC(C)Oc1ccccc1C1(C(=O)NC2C(=O)N3C2SC(C)(C)C3C(=O)O)CCCC1 (centres unmarked) [Compound V (Table 1)] | 0.78 µg/mL | 0.39 µg/mL | > 500 µg/mL | 125 µg/mL (≈ 280 µM) | 0.39 µg/mL | 500 µg/mL | > 500 µg/mL | 7.8 µg/mL | – | 500 µg/mL | > 500 µg/mL | 250 µg/mL (≈ 560 µM) | 1000 to 1500 mg/kg | – | 12.0 units | – | 0.9 µg/mL | 10.3 min | – | – |
| CCCCOc1ccccc1C1(C(=O)NC2C(=O)N3C2SC(C)(C)C3C(=O)O)CCCC1 (centres unmarked) [Compound VI (Table 1), 1-(o-Butoxyphenyl)Cyclopentyl-1-Pencillin] | 0.39 µg/mL | 0.39 µg/mL | > 500 µg/mL | 125 µg/mL (≈ 271 µM) | 0.19 µg/mL | 500 µg/mL | > 500 µg/mL | 15.6 µg/mL | – | 500 µg/mL | > 500 µg/mL | 250 µg/mL (≈ 543 µM) | 1000 mg/kg | – | 16.6 units | – | 1.56 µg/mL | 14.8 min | – | – |
